Laboratory results taken from ChEMBL document CHEMBL1128939, “New simplified inhibitors of EPSP synthase: The importance of ring size for recognition at the shikimate 3-phosphate site” (Bioorg Med Chem Lett, 1996).
pIC50, pKd, pKi: −log10 of the molar value.

What follows are compounds tested against T1, 3-phosphoshikimate 1-carboxyvinyltransferase (Escherichia coli K-12, UniProt P0A6D3) (assay: Compound was tested for inhibitory activity against EPSP(5-enolpyruvylshikimate 3-phosphate) synthase in Escherichia coli.). Settings: not given.
T1 sequence (P0A6D3 whole entry): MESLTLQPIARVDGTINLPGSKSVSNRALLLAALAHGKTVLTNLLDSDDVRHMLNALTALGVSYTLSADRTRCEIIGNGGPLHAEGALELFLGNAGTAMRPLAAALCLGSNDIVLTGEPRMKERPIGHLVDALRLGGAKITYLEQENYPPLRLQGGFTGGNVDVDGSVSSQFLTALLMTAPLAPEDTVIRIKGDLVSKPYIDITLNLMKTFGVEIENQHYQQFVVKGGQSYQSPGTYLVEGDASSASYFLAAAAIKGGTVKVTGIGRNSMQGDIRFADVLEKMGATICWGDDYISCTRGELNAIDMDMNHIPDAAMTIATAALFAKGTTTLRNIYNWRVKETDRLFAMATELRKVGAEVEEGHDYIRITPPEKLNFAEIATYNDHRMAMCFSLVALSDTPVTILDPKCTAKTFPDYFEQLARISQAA

Compound	pIC50
O=C(O)c1cccc(P(=O)(O)O)n1	1.30
O=C(O)c1ccc(O)c(C(O)(C(=O)O)C(=O)O)c1	1.70
O=C(O)C1CCC(P(=O)(O)O)N1 (stereo not drawn)	1.30
O=C(O)c1cccc(P(=O)(O)O)c1	1.30
O=C(O)c1cccn1CP(=O)(O)O	1.30

Same assay, conditions: read-out: Kd app

Compound	pKd
O=C(O)C1=C[C@@H](OP(=O)(O)O)[C@@H](O)[C@H](O[C@](CF)(OP(=O)(O)O)C(=O)O)C1	9.22

Same assay, conditions: read-out: Ki app

pKi	Compound
4.89	O=C(O)C1=C[C@@H](OP(=O)(O)O)[C@@H](O)CC1
7.49	O=C(O)C1=C[C@@H](OP(=O)(O)O)[C@@H](O)[C@H](O[C@](OP(=O)(O)O)(C(=O)O)C(F)(F)F)C1
8.40	O=C(O)C1=C[C@@H](OP(=O)(O)O)[C@@H](O)[C@H](O[C@](OP(=O)(O)O)(C(=O)O)C(F)F)C1

Second part, the compound before the results:

Compound	pKi
O=C(O)c1cc(C(O)P(=O)(O)O)c[nH]1 (stereo not drawn)	7.84
C[C@@](O[C@@H]1CC(C(=O)O)=C[C@@H](OP(=O)(O)O)[C@H]1O)(C(=O)O)P(=O)(O)O	8.30
O=C(O)c1cc(OC(C(=O)O)C(=O)O)cc(OC(C(=O)O)P(=O)(O)O)c1 (stereo not drawn)	5.89
O=C(O)c1cc(OC(C(=O)O)P(=O)(O)O)c(O)c(C(O)(C(=O)O)C(=O)O)c1 (stereo not drawn)	6.28
